In the NIST ThermoML archive (doi:10.1016/j.jct.2019.03.023):
Several values for one entry are separate records, joined by “and”; a condition that tells them apart may be missing. Equal entries are not always repeated.

Assay: molar heat capacity at constant volume
Details: Fluid (supercritical or subcritical phases), Vacuum adiabatic calorimetry

CC(C)O [propan-2-ol]
Details | molar heat capacity at constant volume
452.05 K, Mass density=581.06 kg/m3 | 180.71 J/K/mol
452.1 K, Mass density=581.06 kg/m3 | 178.12 J/K/mol
452.15 K, Mass density=581.06 kg/m3 | 174.34 J/K/mol
452.2 K, Mass density=581.06 kg/m3 | 178.36 J/K/mol
452.25 K, Mass density=581.06 kg/m3 | 175.9 J/K/mol
463.48 K, Mass density=329.2 kg/m3 | 270.31 J/K/mol
463.58 K, Mass density=329.2 kg/m3 | 271.63 J/K/mol
463.68 K, Mass density=329.2 kg/m3 | 275.36 J/K/mol
463.78 K, Mass density=329.2 kg/m3 | 270.31 J/K/mol
463.83 K, Mass density=329.2 kg/m3 | 274.63 J/K/mol
463.97 K, Mass density=329.2 kg/m3 | 279.44 J/K/mol
464.18 K, Mass density=329.2 kg/m3 | 278.72 J/K/mol and 277.04 J/K/mol
464.27 K, Mass density=329.2 kg/m3 | 280.16 J/K/mol
464.42 K, Mass density=329.2 kg/m3 | 278.24 J/K/mol
464.47 K, Mass density=329.2 kg/m3 | 275.54 J/K/mol
464.97 K, Mass density=329.2 kg/m3 | 277.34 J/K/mol
465.27 K, Mass density=329.2 kg/m3 | 272.77 J/K/mol
465.34 K, Mass density=329.2 kg/m3 | 278.54 J/K/mol
482.51 K, Mass density=329.2 kg/m3 | 288.1 J/K/mol
482.6 K, Mass density=329.2 kg/m3 | 289.9 J/K/mol
482.7 K, Mass density=329.2 kg/m3 | 288.46 J/K/mol
482.8 K, Mass density=329.2 kg/m3 | 287.73 J/K/mol
482.89 K, Mass density=329.2 kg/m3 | 288.34 J/K/mol
482.99 K, Mass density=329.2 kg/m3 | 292 J/K/mol
483.09 K, Mass density=329.2 kg/m3 | 287.19 J/K/mol
483.18 K, Mass density=329.2 kg/m3 | 291.64 J/K/mol
491.97 K, Mass density=274 kg/m3 | 317.84 J/K/mol
492.07 K, Mass density=274 kg/m3 | 313.28 J/K/mol
492.16 K, Mass density=274 kg/m3 | 317.9 J/K/mol
492.25 K, Mass density=274 kg/m3 | 317.9 J/K/mol
492.35 K, Mass density=274 kg/m3 | 322.53 J/K/mol
492.44 K, Mass density=274 kg/m3 | 322.53 J/K/mol
492.54 K, Mass density=274 kg/m3 | 322.59 J/K/mol
492.63 K, Mass density=274 kg/m3 | 322.59 J/K/mol
492.73 K, Mass density=274 kg/m3 | 318.08 J/K/mol
493.86 K, Mass density=255.8 kg/m3 | 333.29 J/K/mol
493.95 K, Mass density=255.8 kg/m3 | 333.29 J/K/mol
494.05 K, Mass density=255.8 kg/m3 | 323.49 J/K/mol
494.14 K, Mass density=255.8 kg/m3 | 338.27 J/K/mol
494.24 K, Mass density=255.8 kg/m3 | 333.41 J/K/mol
494.33 K, Mass density=255.8 kg/m3 | 323.61 J/K/mol
494.43 K, Mass density=255.8 kg/m3 | 333.47 J/K/mol
494.52 K, Mass density=255.8 kg/m3 | 328.54 J/K/mol
494.52 K, Mass density=324.5 kg/m3 | 307.87 J/K/mol
494.62 K, Mass density=324.5 kg/m3 | 303.36 J/K/mol
494.71 K, Mass density=324.5 kg/m3 | 303.18 J/K/mol
494.8 K, Mass density=324.5 kg/m3 | 309.79 J/K/mol
494.99 K, Mass density=324.5 kg/m3 | 306.6 J/K/mol
495.09 K, Mass density=324.5 kg/m3 | 314.12 J/K/mol
495.27 K, Mass density=324.5 kg/m3 | 308.05 J/K/mol
495.37 K, Mass density=324.5 kg/m3 | 311.05 J/K/mol
495.46 K, Mass density=324.5 kg/m3 | 303.36 J/K/mol
495.56 K, Mass density=324.5 kg/m3 | 314.96 J/K/mol
499.41 K, Mass density=274 kg/m3 | 329.44 J/K/mol
499.5 K, Mass density=274 kg/m3 | 338.64 J/K/mol
499.6 K, Mass density=274 kg/m3 | 334.07 J/K/mol
499.69 K, Mass density=274 kg/m3 | 338.7 J/K/mol
499.79 K, Mass density=274 kg/m3 | 334.13 J/K/mol
499.88 K, Mass density=274 kg/m3 | 338.76 J/K/mol
499.97 K, Mass density=274 kg/m3 | 338.82 J/K/mol
500.07 K, Mass density=274 kg/m3 | 338.82 J/K/mol
500.16 K, Mass density=274 kg/m3 | 334.25 J/K/mol
500.25 K, Mass density=255.8 kg/m3 | 348.07 J/K/mol
500.35 K, Mass density=255.8 kg/m3 | 343.74 J/K/mol
500.44 K, Mass density=255.8 kg/m3 | 348.67 J/K/mol
500.54 K, Mass density=255.8 kg/m3 | 348.73 J/K/mol
500.63 K, Mass density=255.8 kg/m3 | 345.79 J/K/mol
500.72 K, Mass density=255.8 kg/m3 | 348.79 J/K/mol
500.82 K, Mass density=255.8 kg/m3 | 338.94 J/K/mol
500.85 K, Mass density=329.2 kg/m3 | 318.14 J/K/mol
500.91 K, Mass density=255.8 kg/m3 | 346.15 J/K/mol
500.95 K, Mass density=329.2 kg/m3 | 311.35 J/K/mol
501 K, Mass density=281.9 kg/m3 | 333.77 J/K/mol
501.04 K, Mass density=329.2 kg/m3 | 310.87 J/K/mol
501.09 K, Mass density=281.9 kg/m3 | 334.85 J/K/mol
501.1 K, Mass density=281.9 kg/m3 | 338.09 J/K/mol
501.14 K, Mass density=329.2 kg/m3 | 313.94 J/K/mol
501.23 K, Mass density=329.2 kg/m3 | 314.06 J/K/mol
501.29 K, Mass density=281.9 kg/m3 | 337.01 J/K/mol
501.33 K, Mass density=329.2 kg/m3 | 310.75 J/K/mol
501.38 K, Mass density=281.9 kg/m3 | 335.39 J/K/mol
501.42 K, Mass density=329.2 kg/m3 | 316.76 J/K/mol
501.47 K, Mass density=281.9 kg/m3 | 337.49 J/K/mol
501.53 K, Mass density=329.2 kg/m3 | 318.08 J/K/mol
501.57 K, Mass density=281.9 kg/m3 | 336.95 J/K/mol
501.62 K, Mass density=329.2 kg/m3 | 320.49 J/K/mol
501.66 K, Mass density=281.9 kg/m3 | 338.58 J/K/mol
501.75 K, Mass density=281.9 kg/m3 | 331 J/K/mol
501.81 K, Mass density=329.2 kg/m3 | 316.64 J/K/mol
501.85 K, Mass density=343.1 kg/m3 | 312.61 J/K/mol
501.9 K, Mass density=329.2 kg/m3 | 317.06 J/K/mol
501.94 K, Mass density=266.3 kg/m3 | 345.85 J/K/mol
